Holding throughout (type): cell-based
The subject of test [1] is Staphylococcus aureus ATCC 25923. Nature of the test: Antibacterial assay (CLSI), S. aureus. To be noted: Inactive at >128 μg/mL; for MIC: Staphylococcus aureus, ATCC25923. More on the design: key to MIC, Staphylococcus aureus ATCC 25923: inactive: Inactive at >128 μg/mL. The method, then: (§1) Five microorganism cultures (Methicillin resistant S. aureus DMST 20654, S. aureus ATCC 25923, S. sonnei ATCC 11060, B. subtilis ATCC 6633, and B. cereus ATCC 11778) were used. The experiments were performed at the Department of Microbiology, Faculty of Science, Khon Kaen University, Thailand. The antibacterial assay was performed as recommended by the Clinical and Laboratory Standards Institute. The standard drugs kanamycin and chloramphenicol were used as positive controls.

Test [2] concerns Bacillus cereus ATCC 11778. Briefly: Antibacterial assay (CLSI), B. cereus. More on the design: key to MIC, Bacillus cereus ATCC 11778: inactive: Inactive at >128 μg/mL. As to conditions: Inactive at >128 μg/mL; for MIC: Bacillus cereus, ATCC11778. How it is done: as §1
The subject of test [3] is Bacillus subtilis ATCC 6633. Briefly: Antibacterial assay (CLSI), B. subtilis. More on the design: key to MIC, Bacillus subtilis ATCC 6633: inactive: Inactive at >128 μg/mL. As to conditions: Inactive at >128 μg/mL; for MIC: Bacillus subtilis, ATCC6633. The method, then:
as §1

Test [4] has as its system Methicillin Resistant Staphylococcus aureus DMST 20654. Nature of the test: Antibacterial assay (CLSI), MRSA. More on the design: key to MIC, Methicillin Resistant Staphylococcus aureus DMST 20654: inactive: Inactive at >128 μg/mL. As to conditions: Inactive at >128 μg/mL; for MIC: Staphylococcus aureus. The method, then: as §1
The test system of test [5] is A549 human lung carcinoma cell line. Nature of the test: MTT anti-proliferative assay, A549. As to conditions: Mean ± S.D. (n = 3). How it is done:
(§2) The anti-proliferative effect on cancer cells was evaluated by MTT (3-(4,5-dimethylthiazol-2-yl)-2,5-diphenyltetrazolium bromide) assay. Cells (8 × 10^3 cell/well) were seeded onto 96-well plates and incubated for 24 h to allow adherence. After 24 h, the cells were exposed to increasing concentrations (3.12, 6.25, 12.5, 25, 50, and 100 μg/mL) of pure metabolites in a mixture of DMSO and ethanol (1:1) for 72 h. Control groups were treated with a mixture of DMSO and ethanol (1:1). After the indicated time, the medium was replaced with 110 μL of fresh medium containing MTT (0.5 mg/mL in PBS) (Sigma Chemical Co., St Louis, MO, USA) and incubated for 2 h. The formazan formed after conversion of MTT was dissolved in DMSO. The absorbance of formazan was measured with a microplate reader (Bio-Rad Laboratories, Hercules, CA, USA) at the wavelength of 550 nm with a reference wavelength of 655 nm. The percentage of viable cells which corresponds to the production of formazan was calculated using the following formula [19]. %cell viability = [Sample (A550 - […])/Control (A550 - […])] × 100(1)
In general terms: Tetrazolium assays rely on reduction of a dye to a coloured formazan, in cell work by metabolically active cells.

The subject of test [6] is HT29 human colon cancer. Nature of the test: MTT anti-proliferative assay, HT29. To be noted: Mean ± S.D. (n = 3). The method, then: as §2
Test [7] deals with HeLa human cervical cancer. Briefly: MTT anti-proliferative assay, HeLa. To be noted: 72 h, Mean ± S.D. (n = 3). The method, then: as §2
Test [8] concerns HCT-116 human colon cancer. Briefly: MTT anti-proliferative assay, HCT-116. To be noted: Mean ± S.D. (n = 3). The method, then: as §2
Test [9] has as its system Vero cells. Nature of the test: MTT cytotoxicity assay, Vero cells. To be noted: 72 h, Mean ± S.D. (n = 3). How it is done: as §2

Converted amounts (≈) assume the structure as drawn.

`O=C(N[C@H](CO)[C@H](O)c1ccc([N+](=O)[O-])cc1)C(Cl)Cl` [Chloramphenicol, reference compound]: the MIC (commonly the lowest concentration found to suppress growth) was determined as 8 µg/mL (≈ 24.8 µM) in [1], 4 µg/mL (≈ 12.4 µM) in [2], 4 µg/mL (≈ 12.4 µM) in test [3] and 8 µg/mL (≈ 24.8 µM) in [4].
`CC1(C)CCCC2(C)C1C(O)CC1(C)C3CCc4cocc4C3(C)CCC21` (centres unmarked) [Compound 1, Nambiscalarane B]: the IC50 (usually the concentration that gives 50% inhibition) in test [5] (Homo sapiens, A549, 72 h) is 24.3 ± 7.56 µM; in test [6] (Homo sapiens, HT-29, 72 h) it was 22.71 ± 0.16 µM; in test [7] (Homo sapiens, HeLa), 40.8 ± 0.73 µM; in test [8] (Homo sapiens, HCT-116, 72 h) it was 20.3 ± 3.13 µM; in [9] (Chlorocebus sabaeus, Vero), over 100 µM. This compound yielded an MIC in [1] of 128 µg/mL (≈ 345 µM). The “MIC, Bacillus cereus ATCC 11778” value in [2] is “inactive”. The “MIC, Bacillus subtilis ATCC 6633” value in [3] is “inactive”. The “MIC, Methicillin Resistant Staphylococcus aureus DMST 20654” value in test [4] was “inactive”.
Take `CC(=O)OC1CC2(C)C3CCc4cocc4C3(C)CC(OC(=O)CC(=O)O)C2C2(C)CCCC(C)(C)C12` (centres unmarked) [Compound 2, Nambiscalarane C]: the IC50 was 85 ± 10.2 µM in test [5] (Homo sapiens, A549, 72 h); 33 ± 1.63 µM in test [6] (Homo sapiens, HT-29, 72 h); 73.2 ± 5.37 µM in test [7] (Homo sapiens, HeLa); 14.3 ± 0.56 µM in [8] (Homo sapiens, HCT-116, 72 h); over 100 µM in test [9] (Chlorocebus sabaeus, Vero). The MIC in test [1] stood at 128 µg/mL (≈ 249 µM); in [2] it was 32 µg/mL (≈ 62.2 µM); in test [3] it was 32 µg/mL (≈ 62.2 µM); in test [4], 128 µg/mL (≈ 249 µM).
On to `CC(=O)OC1CC2(C)C3CCc4cocc4C3(C)CC(OC(=O)CC(C)=CC(=O)O)C2C2(C)CCCC(C)(C)C12` (centres unmarked) [Compound 3, Nambiscalarane D], for which the IC50 in test [5] (Homo sapiens, A549, 72 h) is 25 ± 1.59 µM; in test [6] (Homo sapiens, HT-29, 72 h), 20.8 ± 0.63 µM; in test [7] (Homo sapiens, HeLa), 21.1 ± 1.66 µM; in [8] (Homo sapiens, HCT-116, 72 h) it was 21.4 ± 1.14 µM; in [9] (Chlorocebus sabaeus, Vero) it was 70.2 ± 8.23 µM. Besides, the “IC50, Vero Cells” value in test [9] was “no cytotoxicity”. Further, the “MIC, Staphylococcus aureus ATCC 25923” value in test [1] is “inactive”. Besides, the MIC is 32 µg/mL (≈ 57.7 µM) in [2] and 16 µg/mL (≈ 28.8 µM) in test [3]. In addition, the “MIC, Methicillin Resistant Staphylococcus aureus DMST 20654” value in test [4] was “inactive”.
In the case of `CC(=CC(=O)OC1CC2(C)c3cocc3CCC2C2(C)CC(O)C3C(C)(C)CCCC3(C)C12)CC(=O)O` (centres unmarked) [Compound 4, Nambiscalarane E], the IC50 in [5] (Homo sapiens, A549, 72 h) is 22.9 ± 1.99 µM; in test [6] (Homo sapiens, HT-29, 72 h) it was 19.6 ± 2.32 µM; in test [7] (Homo sapiens, HeLa), 23.7 ± 0.51 µM; in [8] (Homo sapiens, HCT-116, 72 h) it was 13.4 ± 0.39 µM; in test [9] (Chlorocebus sabaeus, Vero), over 100 µM. The same compound came in with an MIC in test [1] of 128 µg/mL (≈ 250 µM). Besides, the “MIC, Bacillus cereus ATCC 11778” value in test [2] is “inactive”. The “MIC, Bacillus subtilis ATCC 6633” value in test [3] is “inactive”. Besides, in [4], the “MIC, Methicillin Resistant Staphylococcus aureus DMST 20654” value was “inactive”.
Take `CC(=O)OC1CC2(C)C3CCC4=C(COC4=O)C3(C)CC(OC(=O)C=C(C)CC(=O)O)C2C2(C)CCCC(C)(C)C12` (centres unmarked) [Compound 5, Nambiscalarane F]: the IC50 is 99.14 ± 0.36 µM in [5] (Homo sapiens, A549, 72 h); 54.5 ± 5.93 µM in test [6] (Homo sapiens, HT-29, 72 h); 72.9 ± 5.23 µM in test [7] (Homo sapiens, HeLa); 32.7 ± 2.37 µM in [8] (Homo sapiens, HCT-116, 72 h); over 100 µM in test [9] (Chlorocebus sabaeus, Vero). The “IC50, Vero Cells” value in test [9] was “no cytotoxicity”. The MIC worked out at 16 µg/mL (≈ 28 µM) in test [1], 128 µg/mL (≈ 224 µM) in test [2] and 128 µg/mL (≈ 224 µM) in test [3]. Also, the “MIC, Methicillin Resistant Staphylococcus aureus DMST 20654” value in test [4] was “inactive”.
For the compound `CC(=O)OC1CC2(C)C3CCC4=C(COC4=O)C3(C)CC(OC(=O)CC(C)=CC(=O)O)C2C2(C)CCCC(C)(C)C12` (centres unmarked) [Compound 6, Nambiscalarane G], the IC50 in test [5] (Homo sapiens, A549, 72 h) is over 100 µM; in test [6] (Homo sapiens, HT-29, 72 h), 78.2 ± 4.28 µM; in test [7] (Homo sapiens, HeLa) it was 45.9 ± 2.77 µM; in test [8] (Homo sapiens, HCT-116, 72 h) it was 16.5 ± 2.79 µM; in [9] (Chlorocebus sabaeus, Vero), over 100 µM. Further, the figures for the minimal inhibitory concentration (MIC) in test [1] and in [2] were 64 µg/mL (≈ 112 µM) and 128 µg/mL (≈ 224 µM), respectively. The “MIC, Bacillus subtilis ATCC 6633” value in test [3] was “inactive”. In addition, the “MIC, Methicillin Resistant Staphylococcus aureus DMST 20654” value in [4] was “inactive”.
For `CC(=O)OC1CC2(C)C3CCC4=C(C(O)OC4=O)C3(C)CC(OC(=O)C=C(C)CC(=O)O)C2C2(C)CCCC(C)(C)C12` (centres unmarked) [Compound 7, Nambiscalarane H], the IC50 in [5] (Homo sapiens, A549, 72 h) was over 100 µM; in [6] (Homo sapiens, HT-29, 72 h), over 100 µM; in test [7] (Homo sapiens, HeLa) it was over 100 µM; in test [8] (Homo sapiens, HCT-116, 72 h) it was over 100 µM; in [9] (Chlorocebus sabaeus, Vero) it was over 100 µM. Moreover, the “IC50, Vero Cells” value in test [9] was “no cytotoxicity”. Also, in test [1], the “MIC, Staphylococcus aureus ATCC 25923” value is “inactive”. The MIC in test [2] and in test [3] was 64 µg/mL (≈ 109 µM) throughout. Further, the “MIC, Methicillin Resistant Staphylococcus aureus DMST 20654” value in [4] is “inactive”.
As for `CC(=O)O[C@H]1C[C@]2(C)[C@H]([C@H](OC(=O)/C=C(\C)CC(=O)O)C[C@]3(C)c4cocc4CC[C@@H]23)[C@@]2(C)CCCC(C)(C)[C@H]12` [Compound 8, Nambiscalarane], the IC50 in test [5] (Homo sapiens, A549, 72 h) was 27.5 ± 0.32 µM; in [6] (Homo sapiens, HT-29, 72 h), 20.4 ± 2.07 µM; in [7] (Homo sapiens, HeLa), 26.6 ± 2.58 µM; in test [8] (Homo sapiens, HCT-116, 72 h), 24.4 ± 2.06 µM; in [9] (Chlorocebus sabaeus, Vero), over 100 µM. Moreover, the MIC worked out at 16 µg/mL (≈ 28.8 µM) in [1], 16 µg/mL (≈ 28.8 µM) in test [2], 8 µg/mL (≈ 14.4 µM) in [3] and 128 µg/mL (≈ 231 µM) in test [4]. Further, in test [3], the “MIC, Bacillus subtilis ATCC 6633” value is 8 µg/mL (≈ 14.4 µM).
On to `NC[C@H]1O[C@H](O[C@H]2[C@H](O)[C@@H](O[C@H]3O[C@H](CO)[C@@H](O)[C@H](N)[C@H]3O)[C@H](N)C[C@@H]2N)[C@H](O)[C@@H](O)[C@@H]1O` [Kanamycin, reference compound], for which, in [1], the “MIC, Staphylococcus aureus ATCC 25923” value is 2 µg/mL (≈ 4.13 µM). In test [2], the “MIC, Bacillus cereus ATCC 11778” value was determined as 16 µg/mL (≈ 33 µM). The “MIC, Bacillus subtilis ATCC 6633” value in [3] turned out to be 8 µg/mL (≈ 16.5 µM). The “MIC, Methicillin Resistant Staphylococcus aureus DMST 20654” value in test [4] was found to be 4 µg/mL (≈ 8.26 µM).
Consider `N.N.[Cl][Pt][Cl]` [cis-platin, reference compound], for which the IC50 in test [5] (72 h) was 16.86 ± 0.03 µM; in [6] (72 h) it was 5.3 ± 0.23 µM; in test [7], 6.43 ± 0.13 µM; in [8] (72 h) it was 4.93 ± 0.77 µM; in [9], over 100 µM.

Values taken from paper PMC8708503, “Scalarane Sesterterpenoids with Antibacterial and Anti-Proliferative Activities from the Mushroom Neonothopanus nambi” (Molecules, 2021).
